Measured values reported in BindingDB's records for doi:10.1021/jm020270n (Dainippon Pharmaceutical, 2003).

Target: D(2) dopamine receptor (Rattus norvegicus, UniProt P61169)
Experiment: Affinity towards Dopamine receptor D2 in rat striatum using [3H]spiperone as radioligand

Sequence of D(2) dopamine receptor (P61169 whole entry): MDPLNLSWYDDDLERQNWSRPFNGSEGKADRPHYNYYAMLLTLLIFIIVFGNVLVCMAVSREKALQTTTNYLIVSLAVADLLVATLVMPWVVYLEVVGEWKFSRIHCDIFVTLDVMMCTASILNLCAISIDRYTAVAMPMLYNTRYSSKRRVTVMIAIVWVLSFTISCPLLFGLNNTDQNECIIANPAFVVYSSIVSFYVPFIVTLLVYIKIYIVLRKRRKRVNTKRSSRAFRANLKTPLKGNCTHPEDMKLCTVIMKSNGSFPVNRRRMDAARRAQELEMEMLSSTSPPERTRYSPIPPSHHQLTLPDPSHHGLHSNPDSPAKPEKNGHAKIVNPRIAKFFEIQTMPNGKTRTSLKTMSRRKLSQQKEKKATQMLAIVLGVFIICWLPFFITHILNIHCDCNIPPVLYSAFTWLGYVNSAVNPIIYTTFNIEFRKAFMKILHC

COc1cc(N)c(Cl)cc1C(=O)NC1CC2CCC(C1)N2C (stereo unspecified) [4-amino-5-chloro-2-methoxy-N-(8-methyl-8-azabicyclo[3.2.1]octan-3-yl)benzamide]
Ki: > 1000 nM
